Drawing on ChEMBL document CHEMBL3875218, “Bifunctional conjugates with potent inhibitory activity towards cyclooxygenase and histone deacetylase” (Bioorg Med Chem, 2017), this text covers IC50, inhibition and Activity for one compound.

Structures are written as SMILES. Activity calls are given as the source filed them. No cut-off for these calls is given here.

Assay [1] can be described thus: Cytotoxicity against human A549 cells assessed as cell growth inhibition after 72 hrs by MTT assay. In kind it is functional, cell-based. The note with it: A549, 72 h.
Assay [2] can be described thus: Cytotoxicity against human HCT116 cells assessed as cell growth inhibition after 72 hrs by MTT assay. Particulars: HCT-116, 72 h. In kind it is functional, cell-based.
In assay [3] the test system is LNCaP. In words: Inhibition of HDAC in human LNCAP cells assessed as down regulation of COX2 expression at 2 uM after 24 hrs by Western blot analysis. In kind it is cell-based.
Assay [4] relates to LNCaP. In words: Induction of cell cycle arrest in human LNCAP cells assessed as accumulation at G2 phase at 2.5 uM after 24 hrs by propidium iodide staining based FACS analysis (reference value: 1.08%). The format is functional.

Consider `Cc1ccc(-c2cc(C(F)(F)F)nn2-c2ccc(S(=O)(=O)NCCCCCCC(=O)NO)cc2)cc1`, for which the figures for the IC50 in assay [1] and in assay [2] were 8 µM and 3.38 µM, respectively. In addition, the inhibition entry in the assay with LNCaP [3] is “Active”. Further, the Activity in the assay on LNCaP [4] is reported as 1.4%.
